The subject of data set [1] is warm-blooded living beings. In words: Toxicity with respect to warm-blooded living beings (general statement). As to conditions: in words.
For data set [2], the system named is Fusarium culmorum. In words: Protection of seedlings against plant pathogenic seed fungus by seed treatment (wheat). Particulars: wheat seed infested with Fusarium culmorum; 3 g composition (10% by weight in kaolin) per kg of seed; after three weeks, 8°-12° C.; untreated 67. The class given is in vivo. As to the method:
Test with respect to the protection of seedlings against a plant pathogenic seed fungus, namely Fusarium culmorum, by means of a seed treatment.
Wheat seed, infested with Fusarium culmorum, is treated with the substance to be tested in the form of a composi tion in a quantity of 3 g per kg of seed. The composition is obtained by pulverising the substance to be tested and then intimately mixing with kaolin in a concentration of 10% by weight. The seed thus treated is sown in a tray containing soil which is placed in a Wisconsin tank with a bottom temperature of 8°-12° C. After three weeks the number of emerged and healthy plants is determined. The emergence of healthy plants from untreated seed serves as control. For comparison, the known substances 2-methylsulphinyl-4-methyl-5-nitrothiazole (a), 2-methylsulphinyl-3-nitrothiophene (b) and 2-ethylsulphinyl-3-nitro-5-acetylthiophene (c) mentioned hereinbefore are also tested. In the examples, the numbers of the compounds refer to the specification.

Data set [3] deals with soil-borne and seed-borne pathogenic micro-organisms. In words: Fungicidal activity in practice (general statement). As to conditions: in words.
Data set [4] in a line: Acute oral toxicity (lethal dose) in male mice. As to conditions: mouse, in vivo, acute mortality, mg/kg of body weight. As for the experimental part:
Toxicity with respect to warm-blooded living beings.
The LD50 is determined by orally administering the substance to be tested to male mice and determining the acute mortality. In Table C below, the LD50 is recorded in mg/kg of body weight.
For comparison, the known compound (b) (see EXAMPLE XV) is also tested.

The next data set deals with Leptosphaeria nodorum. In words: In vitro test on activity against Leptosphaeria nodorum. It is filed as cell-based. As to conditions: Parastagonospora nodorum, read-out: growth inhibition of the fungus. Put shortly:
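Compounds were incorporated at 3 and 10 ppm into glucose/yeast extract/peptone agar plates inoculated with the fungus. Plates were held at 20 °C, and growth inhibition was scored visually after 48 h.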

The test system of a further data set is Pythium splendens. As to the kind of experiment: In vitro test on activity against Pythium splendens. The class given is cell-based. As to conditions: Globisporangium splendens, read-out: growth inhibition of the fungus.
In the next data set the test system is Pyrenophora graminea. As to the kind of experiment: In vitro test on activity against Pyrenophora graminea. Particulars: 48 hours, 20° C., read-out: % growth inhibition of the fungus. It is filed as cell-based. As for the experimental part:
In vitro test on activity against Pyrenophora graminea.
The compound to be tested is processed in a culture medium consisting of 1% by weight of glucose, 0.2% by weight of a yeast extract (marmite), 0.5% by weight of a protein (pepton), 2.5% by weight of agar-agar, and 95.8% by weight of water, in petri dishes in concentrations of 3 and 10 ppm. The petri dishes are inoculated with the plant-pathogenic fungus Pyrenophora graminea and then kept at a temperature of 20° C. After 48 hours the growth-inhibiting activity of the compounds is determined visually. For comparison, the known substance (b) (see EXAMPLE XV) is also tested.

A further data set has as its system Rhizoctonia solani. As to the kind of experiment: In vitro test on activity against Rhizoctonia solani. The class given is cell-based. Particulars: read-out: growth inhibition of the fungus. As to the method:
The compound to be tested is processed in a culture medium consisting of 1% by weight of glucose, 0.2% by weight of a yeast extract (marmite), 0.5% by weight of a protein (pepton), 2.5% by weight of agar-agar, and 95.8% by weight of water, […] The petri dishes are inoculated with the plant-pathogenic fungus Pyrenophora graminea and then kept at a temperature of 20° C. After 48 hours the growth-inhibiting activity of the compounds is determined visually. For comparison, the known substance (b) (see EXAMPLE XV) is also tested.
Compounds according to the invention are tested on Rhizoctonia solani in the same manner as described in EXAMPLE XIX.

Data set [5] concerns Fusarium culmorum. In words: In vitro test on activity against Fusarium culmorum. Particulars: read-out: growth inhibition of the fungus. The class given is cell-based.
Another data set has as its system Pythium spp. As to the kind of experiment: Protection of seedlings against plant-pathogenic soil fungus by seed treatment (beet). The class given is in vivo. As to conditions: after 3 weeks, 18°-22° C., untreated 72. As to the method: Test with respect to the protection of seedlings against a plant-pathogenicsoil fungus, namely Pythium spp., by means of a seed treatment.
The compounds to be tested are processed to compositions by pulverising them and then mixing them intimately with kaolin in the desired concentration (see Table B). Beet seed is treated with these compositions in a quantity of 6 g of composition per kg of seed and then sown in trays with soil which was seriously infested with Pythium spp. After 3 weeks in a glass-house at 18°-22° C. and a relative humidity of 70-100%, the percentage of non-emerged and diseased seedlings (damping-off) is determined. The results are recorded in Table B. For comparison, the known substance 2-methylsulphinyl-4-methyl-5-nitrothiazole(a) is also tested.

Bounds are passed on as bounds.

For `CC[S+]([O-])c1sc(C(C)=O)cc1[N+](=O)[O-]` (stereo not shown) [(c), 2-ethylsulphinyl-3-nitro-5-acetylthiophene], in [1], the “toxicity with respect to warm-blooded living beings” value was “undesired toxicity”. Also, in the data set with Fusarium culmorum [2], the “Percentage of emerged, healthy plants” value was 74%. The activity result in [3] was “leaves to be desired in practice”.
`CCCC[S+]([O-])c1sc(C#N)c(Cl)c1C#N` (stereo not shown) [(43), 2-n-butylsulphinyl-3,5-dicyano-4-chlorothiophene]: the LD50 in data set [4] came out at 246 mg/kg. Moreover, the values for the inhibition at 30 ppm with Leptosphaeria nodorum, with Rhizoctonia solani and in the data set on Fusarium culmorum [5] were not below 85%, not below 75% and not below 75%, respectively. Also, the inhibition at 10 ppm in the data set with Pythium splendens is not below 95%; in the data set with Pyrenophora graminea it was 72%.
Take `CCC[S+]([O-])c1sc(C#N)c(Cl)c1C#N` (stereo not shown) [(33), 2-n-propylsulphinyl-3,5-dicyano-4-chlorothiophene]: the 50% lethal dose (LD50) in [4] is 246 mg/kg. Besides, the inhibition at 30 ppm is not below 85% in the data set with Leptosphaeria nodorum, not below 75% in the data set on Rhizoctonia solani and not below 75% in the data set with Fusarium culmorum [5]. For the same compound, the inhibition at 10 ppm in the data set with Pythium splendens is not below 95%; in the data set with Pyrenophora graminea it was 83%.
For the compound `Cc1nc([S+](C)[O-])sc1[N+](=O)[O-]` (stereo not shown) [(a), 2-methylsulphinyl-4-methyl-5-nitrothiazole, reference compound], the percentage damping-off with Pythium spp. (600 mg of active substance per kg of seed) came to 57%; with Pythium spp. (1200 mg of active substance per kg of seed), 45%. Moreover, the “Percentage of emerged, healthy plants” value with Fusarium culmorum [2] is listed as 68%. In addition, the activity entry in data set [3] is reported as “insufficiently active”.
As for `C[S+]([O-])c1sccc1[N+](=O)[O-]` (stereo not shown) [(b), 2-methylsulphinyl-3-nitrothiophene, reference compound], in data set [4], the LD50 worked out at 31.6 mg/kg. Also, the “toxicity with respect to warm-blooded living beings” value in data set [1] is recorded as “undesired toxicity”. The “Percentage of emerged, healthy plants” value in the data set on Fusarium culmorum [2] stood at 75%. In addition, in the data set on Pyrenophora graminea (3 ppm), the inhibition at 3 ppm was 0%. Moreover, the inhibition at 10 ppm with Pyrenophora graminea came out at 37%. Further, in [3], the activity entry is listed as “leaves to be desired in practice”.

As usually defined, the LD50 is the dose expected to kill half of the subjects tested. A lower LD50 goes with greater toxicity. Broadly, the inhibition is how much of the control response was suppressed.

The values are drawn from patent US4994485A, “Thio compounds having fungicidal activity” (Duphar International Research B.V., priority 1986, dated 1991).
